These results are taken from article PMC7380166, “How to Study the Metabolism of New Psychoactive Substances for the Purpose of Toxicological Screenings—A Follow-Up Study Comparing Pooled Human Liver S9, HepaRG Cells, and Zebrafish Larvae” (Frontiers in Chemistry, 2020).

For data set [1] the following is noted: pHLM without co-substrates of phase II reactions; ref Haschimi et al., [2019]; cited from earlier work.
Another data set concerns zebrafish larvae. Nature of the data set: In vivo maximum-tolerated concentration (MTC) study in zebrafish larvae. Further details: species or system zebrafish (Danio rerio). The settings on record: for Survival rate: 24-h treatment, fifteen larvae. The procedure, abridged:
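AB wild-type larvae, one per well in Danieau's medium (pH 7.1–7.3) at 28°C, exposed from 4 dpf for 24 h to 0, 0.01, 0.1, 1, 10, 50 or 100 μM with 1% DMSO.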

The target of another data set is T1, hCES1b (Homo sapiens, UniProt P23141).
T1 construct: purchased Corning
T1 sequence (P23141 18-567): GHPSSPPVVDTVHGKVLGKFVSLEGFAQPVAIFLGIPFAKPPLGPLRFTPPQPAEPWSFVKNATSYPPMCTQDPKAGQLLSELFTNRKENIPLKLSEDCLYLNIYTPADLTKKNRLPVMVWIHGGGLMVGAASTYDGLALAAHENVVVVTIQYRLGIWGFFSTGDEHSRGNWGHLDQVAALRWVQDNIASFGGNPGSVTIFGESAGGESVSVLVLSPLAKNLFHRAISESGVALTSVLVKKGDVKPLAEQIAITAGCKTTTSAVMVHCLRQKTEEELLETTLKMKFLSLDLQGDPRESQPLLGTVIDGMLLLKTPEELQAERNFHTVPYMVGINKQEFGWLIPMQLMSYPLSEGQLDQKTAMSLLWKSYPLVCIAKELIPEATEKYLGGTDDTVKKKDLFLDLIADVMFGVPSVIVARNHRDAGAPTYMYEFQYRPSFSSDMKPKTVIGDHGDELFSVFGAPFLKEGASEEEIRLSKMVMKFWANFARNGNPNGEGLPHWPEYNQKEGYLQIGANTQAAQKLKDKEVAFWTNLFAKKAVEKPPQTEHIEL
Put plainly: Esterases activity screening, hCES1b. The class given is in vitro ADME. Also noted: key: +, detected; –: −, not detected. The settings on record: 100 μM 4F-MDMB-BINACA, 0.2 mg protein/ml, duplicate. As to the method:
Experiments were performed in accordance with a previous study (Meyer et al., [2015]) with minor modifications. The final volume per reaction tube was 100 μl with a final 4F-MDMB-BINACA concentration of 100 μM and enzyme concentration of 0.2 mg protein/ml for hCES1b, hCES1c, and hCES2. Incubations with pHLM and pHLS9 (0.2 mg protein/ml, each) were performed in a similar manner. Additionally, incubations with human plasma (50 μl pooled human plasma, 40 μl phosphate buffer, and 10 μl substrate) were performed. The reactions were started by adding the enzyme-containing preparation and terminated with an equal volume of ice-cold acetonitrile containing diazepam-d5 (100 μM) as an internal standard. Only plasma incubations were terminated by addition of a three-fold volume of ice-cold acetonitrile. The reaction mixtures were centrifuged at 18,407 × g for 15 min, and then supernatants were transferred to autosampler vials, and 5 μl was injected onto the LC-HRMS/MS system. Negative control incubations without enzyme were prepared to identify non-metabolically formed compounds. All incubations were done in duplicate.

For `COC(=O)C(NC(=O)c1nn(CCCCF)c2ccccc12)C(C)(C)C` (stereo not shown) [4F-MDMB-BINACA, methyl 2-[1-(4-fluorobutyl)-1H-indazole-3-carbonyl]amino-3,3-dimethylbutanoate], in data set [1], the “Number of phase I metabolites identified in pHLM incubations” value is 11. For the same compound, the Survival rate is reported as 100% with zebrafish larvae (0.01 μM, larvae 4 dpf); 100% with zebrafish larvae (0.1 μM, larvae 4 dpf); 100% in the data set on zebrafish larvae (1 μM, larvae 4 dpf); 100% in the data set with zebrafish larvae (10 μM, larvae 4 dpf); 73% in the data set on zebrafish larvae (50 μM, larvae 4 dpf); 53% in the data set on zebrafish larvae (100 μM, larvae 4 dpf). Moreover, the “Concentration considered non-toxic for zebrafish larvae (4 dpf)” value in the data set on zebrafish larvae (24 h exposure via medium) amounted to 25 µM. For the same compound, the Malformations result with zebrafish larvae (up to 100 μM, larvae 4 dpf, 24 h) is reported as “No malformations”.
On to `CC(C)(C)C(NC(=O)c1nn(CCCCF)c2ccccc12)C(=O)O` (stereo not shown) [MB8], for which, at hCES1b, the “Detection of metabolite in incubation with hCES1b” value is “+”.
